This assay addresses T1, FimH proteins (Escherichia coli, UniProt Q1R2J4).
T1 construct: endogenous in cells; host or cells: UPEC strain UTI89 (whole bacteria)
Put plainly: hemagglutination inhibition (HAI) assay: UPEC UTI89 with guinea pig red blood cells. Format: cell-based, uropathogenic Escherichia coli (UPEC) UTI89. The following applies: read-out: HAI EC90 (minimum concentration for inhibiting hemagglutination). As for the experimental part: In the present example, the mannose derivatives A1 to A107 that were prepared in Examples 1 to 12 were analyzed in hemagglutination inhibition (HAI) assays to determine inhibitory effects of the compounds on the function/activity of FimH proteins.
1. Preparation of a guinea pig red blood cell solution: an adult guinea pig was anesthetized with ethyl ether, blood was sampled from the heart, placed in an EDTA blood collection tube, and centrifuged at 2,000 rpm for 5 min, serum was removed, the sample was transferred in a centrifuge tube (15 mL), sterilized PBS was added, the sample was centrifuged at 1,500 rpm for 10 min, a supernatant was removed, the sample was transferred in a centrifuge tube (50 mL), PBS was added, the sample was centrifuged at 1,500 rpm for 10 min and repeatedly washed twice, and red blood cells were slightly aspirated into a new centrifuge tube (50 mL) to obtain a 5% guinea pig red blood cell solution.
2. Preparation of a bacteria solution: a UPEC cell line UTI89 was inoculated on a medium plate and cultured in an incubator at 37° C. overnight. Single colonies were picked and inoculated in an LB medium in a sterilized conical flask, and cultured at 37° C. and 170 r/min overnight. When an OD value at 540 nm was about 0.8 on a microplate reader, the bacterial concentration was about 10^8-10^9 cfu/mL, the bacteria solution was centrifuged at 2,000 rpm for 10 min, a supernatant was removed, and 1 mL of bacteria solution was prepared into 0.1 mL of PBS bacteria solution. […] The bacteria and the medium were uniformly mixed by shaking, and reacted in an incubator at 25° C. for about 20-40 min. When the plate was read, the wells in which complete agglutination occurred were used as 4HAU for the hemagglutination titer of the bacteria. For example, if the endpoint titer of hemagglutination is 1:256, the dilution multiple of the 4HAU antigen is 1:64 (256 divided by 4). Bacteria solutions at corresponding concentrations were prepared according to the experimental results.
3. Activity assay: a compound to be tested or a standard product was placed in a 96-well microtest plate, 50 μL of drug at an initial concentration of 200 μM was placed in the first well, and from the second well, 25 μL of PBS was added to each well to dilute the drug in proportion. The drug and the medium in the first well were mixed, 25 μL of mixed drug solution was placed in the second well, the drug solution was diluted in sequence to the last well, and 25 μL of drug solution was removed. 25 μL of bacteria solution was placed in each well of the culture plate containing the diluted drug, and cultured at 37° C. for 40 min. 25 μL of 5% guinea pig red blood cell suspension was placed in each well, and slightly uniformly mixed with the drug, and the plate was placed at 4° C. for about 1 h. When results were determined, the plate was tilted 60°, and whether the red blood cells flowed like teardrops was observed.
Mannosyl proteins are expressed on the surface of red blood cells in a guinea pig, which can bind to FimH proteins of UTI89 to cause hemagglutination. It can be observed with the naked eyes that the red blood cells form film-like agglutination at the bottom of the well, and loose red dots can be seen in the center. The FimH protein inhibitor competitively binds to FimH proteins to inhibit hemagglutination. It can be observed with the naked eyes that all the red blood cells sink and concentrate at the bottom of the well to form dense dots. The minimum concentration for inhibiting hemagglutination is expressed as an EC90 value of a compound. The final concentration of the compound in the first well is 66700 nM, the concentration in the second well is half that in the first well, the concentration in the third well is half that in the second well, and so on. […] A low EC90 value indicates high activity of a compound.

We go through 18 molecules from US11964996B2, “2-alkynylmannose derivative and application thereof” (priority 2020, dated 2024).

Take `OC[C@H]1O[C@H](C#Cc2cnn(-c3ccc(OCC4CC4)cc3)c2)[C@](O)(C#CC2CC2)[C@@H](O)[C@@H]1O` [Compound A31]: the EC90 was less than 0.1 nM.
On to `O=c1ccc(C#C[C@H]2O[C@H](CO)[C@@H](O)[C@H](O)[C@@]2(O)C#Cc2ccccc2)cn1C1CCCCC1` [Compound A54], for which the EC90 was 4 nM.
The figure for `COCCOc1ccc(-n2cc(C#C[C@H]3O[C@H](CO)[C@@H](O)[C@H](O)[C@@]3(O)C#Cc3ccccc3)cn2)cc1` [Compound A102] is less than 0.1 nM; for `CC(C)n1cc(C#C[C@@]2(O)[C@@H](C#Cc3ccccc3)O[C@H](CO)[C@@H](O)[C@@H]2O)ccc1=O` [Compound A23] it is 260 nM.
The figure for `CO[C@H]1CC[C@H](n2cc(C#C[C@H]3O[C@H](CO)[C@@H](O)[C@H](O)[C@@]3(O)C#Cc3cc(F)cc(F)c3)cn2)CC1` [Compound A75] is 8 nM; for `CCC(C)n1cc(C#C[C@H]2O[C@H](CO)[C@@H](O)[C@H](O)[C@@]2(O)C#Cc2ccccc2)cn1` (stereo partly drawn) [Compound A41] it is 8 nM.
The figure for `OC[C@H]1O[C@H](C#Cc2cnn(-c3ccc(O[C@@H]4CCOC4)cc3)c2)[C@](O)(C#CC2CC2)[C@@H](O)[C@@H]1O` [Compound A99] is less than 0.1 nM; for `CCOc1ccc(-n2cc(C#C[C@H]3O[C@H](CO)[C@@H](O)[C@H](O)[C@@]3(O)C#CC3CC3)cn2)cc1` [Compound A106] it is less than 0.1 nM; for `Cc1cccc(C#C[C@@]2(O)[C@@H](C#Cc3ccccc3)O[C@H](CO)[C@@H](O)[C@@H]2O)c1` [Compound A18] it is 260 nM.
With `OC[C@H]1O[C@H](C#Cc2cnn(-c3ccc(F)cc3)c2)[C@](O)(C#CC2CC2)[C@@H](O)[C@@H]1O` [Compound A93], the EC90 worked out at 2 nM.
The figure for `OC[C@H]1O[C@H](C#Cc2cnn(C3CCCCC3)c2)[C@](O)(C#CC2CC2)[C@@H](O)[C@@H]1O` [Compound A59] is 4 nM; for `OC[C@H]1O[C@H](C#Cc2cnn(C3CCOCC3)c2)[C@](O)(C#Cc2ccccc2)[C@@H](O)[C@@H]1O` [Compound A52] it is 4 nM; for `OC[C@H]1O[C@H](C#Cc2cnn([C@H]3C[C@H]4C[C@H]4C3)c2)[C@](O)(C#Cc2ccccc2)[C@@H](O)[C@@H]1O` [Compound A62] it is 0.5 nM.
The figure for `CCC(C)O[C@H]1O[C@H](CO)[C@@H](O)[C@H](O)[C@@]1(O)C#Cc1ccc(F)cc1` (stereo partly drawn) [Compound A56] is 520 nM; for `OC[C@H]1O[C@H](C#Cc2cnn(-c3ccc(O[C@@H]4CCOC4)cc3)c2)[C@](O)(C#Cc2ccccc2)[C@@H](O)[C@@H]1O` [Compound A103] it is less than 0.1 nM.
The figure for `OC[C@H]1O[C@H](OC2CCC(F)(F)CC2)[C@](O)(C#Cc2ccccc2)[C@@H](O)[C@@H]1O` [Compound A13] is 1040 nM; for `CC(C)Oc1cccc(C#C[C@H]2O[C@H](CO)[C@@H](O)[C@H](O)[C@@]2(O)C#Cc2ccccc2)c1` [Compound A27] it is 130 nM; for `COc1ccc(-n2cc(C#C[C@H]3O[C@H](CO)[C@@H](O)[C@H](O)[C@@]3(O)C#Cc3cnn(C)c3)cn2)cc1` [Compound A82] it is less than 0.1 nM.
